Source: PubChem BioAssay AID504367 (Southern Research Specialized Biocontainment Screening …, 2011)
Active and inactive are the calls of the source.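 The calls were made as follows: active = fusion inhibition of 50% or more at any tested concentration; inactive = the rest.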

System: HeLa-CD4-LTR-beta-gal/HL2/3 cell fusion, beta-gal luminescence
Assay: CXCR4-tropic HIV-1 entry blockers, cell-cell fusion – HeLa-CD4-LTR-beta-gal/HL2/3 cells, beta-gal luminescence, dose response (AID 504367)

| Compound | IC50 |
| --- | --- |
| CCOC(=O)C1=C(C)N=c2sc(=Cc3ccc(OCC(=O)O)cc3)c(=O)n2C1c1ccc(OC)cc1OC (stereo not drawn) | > 100 µM (inactive) |
| CS(=O)(=O)C1=NSC2=NC(=O)/C(=C\c3cccn3-c3ccc(F)cc3)C(=N)N21 | 58.1 µM |
| Cc1c2c(=O)n(-c3nc4ccccc4s3)nc-2cc(O)n1Cc1ccc(F)cc1 | 55.3 µM |
| COc1ccccc1NS(=O)(=O)c1ccc2c(c1)C1C=CCC1C(c1ccc(C(=O)O)cc1)N2 (stereo not drawn) | 18.4 µM |
| O=C(O)CCCN1C(=O)/C(=C\c2ccc(-c3ccc(Br)cc3)o2)SC1=S | 0.47 µM |
| Cc1c2c(=O)n(-c3nc4ccccc4s3)nc-2cc(O)n1CCc1cccs1 | > 100 µM (inactive) |
| Cc1ccc(-n2cccc2/C=C2/C(=N)N3C(=NC2=O)SN=C3S(C)(=O)=O)cc1C | 21.4 µM |
| Cc1c2c(=O)n(-c3nc4ccccc4s3)nc-2cc(O)n1CCc1ccc(O)cc1 | 43.6 µM |
| CCOC(=O)C1=C(C)N=c2sc(=Cc3ccc(OCC(=O)O)cc3)c(=O)n2C1c1ccccc1 (stereo not drawn) | > 100 µM (inactive) |
| Cc1c2c(=O)n(-c3nc4ccccc4s3)nc-2cc(O)n1Cc1ccncc1 | > 100 µM (inactive) |
| CS(=O)(=O)C1=NSC2=NC(=O)/C(=C\c3cccn3-c3cccc(F)c3)C(=N)N21 | 62.7 µM |
| Cc1ccc(-c2ccc(/C=C3\SC(=S)N(CCCC(=O)O)C3=O)o2)cc1 | 4.6 µM |
| COc1ccc(-c2ccc(/C=C3\SC(=S)N(CCCC(=O)O)C3=O)o2)cc1 | 1.66 µM |
| CCOC(=O)C1=C(c2ccccc2)N=c2s/c(=C\c3ccc(OCC(=O)O)cc3)c(=O)n2C1c1cccc(OC)c1 (stereo not drawn) | 23.3 µM |
| O=C(O)c1ccc(C[n+]2c(-c3ccc([N+](=O)[O-])cc3)csc2Nc2ccccc2)cc1 | > 100 µM (inactive) |
| Cc1ccc(-n2cccc2/C=C2/C(=N)N3C(=NC2=O)SN=C3S(C)(=O)=O)cc1 | 39.9 µM |
| Nc1sc2ccccc2[n+]1Cc1ccc(C(=O)O)cc1 | > 100 µM (inactive) |
| O=C(O)CCCN1C(=O)/C(=C\c2ccc(-c3cccc(Cl)c3)o2)SC1=S | 31.8 µM |
| O=C(O)c1ccc(C2Nc3ccc(S(=O)(=O)Nc4cc(Cl)ccc4Cl)cc3C3C=CCC32)cc1 (stereo not drawn) | 36.8 µM |
| COc1ccc(Cn2c(O)cc3nn(-c4nc5ccccc5s4)c(=O)c-3c2C)cc1 | 49.2 µM |
| CS(=O)(=O)C1=NSC2=NC(=O)/C(=C\c3cccn3-c3ccc(Br)cc3)C(=N)N21 | 25.2 µM |
| O=C(O)CCC(C(=O)O)N1C(=O)/C(=C\c2ccco2)SC1=S (stereo not drawn) | > 100 µM (inactive) |
| Cc1c2c(=O)n(-c3nc4ccccc4s3)nc-2cc(O)n1CCC(C)C | 40 µM |
| CS(=O)(=O)C1=NSC2=NC(=O)/C(=C\c3cccn3-c3cccc(C(F)(F)F)c3)C(=N)N21 | > 100 µM (inactive) |
| COc1cccc(-n2cccc2/C=C2/C(=N)N3C(=NC2=O)SN=C3S(C)(=O)=O)c1 | > 100 µM (inactive) |
| O=C(O)CCCN1C(=O)/C(=C/c2cc3ccccc3o2)SC1=S | > 100 µM (inactive) |
| Cc1c2c(=O)n(-c3nc4ccccc4s3)nc-2cc(O)n1C1CC1 | 60.4 µM |

| Compound | IC50 |
| --- | --- |
| CCc1ccc(-c2ccc(/C=C3\SC(=S)N(CCCC(=O)O)C3=O)o2)cc1 | 2.47 µM |
| COc1ccccc1Cn1c(O)cc2nn(-c3nc4ccccc4s3)c(=O)c-2c1C | 42.2 µM |
| CCc1ccc(-n2cccc2/C=C2/C(=N)N3C(=NC2=O)SN=C3S(C)(=O)=O)cc1 | 46 µM |
| CS(=O)(=O)C1=NSC2=NC(=O)/C(=C\c3cccn3-c3ccc(Cl)cc3)C(=N)N21 | 67.7 µM |
| CS(=O)(=O)C1=NSC2=NC(=O)/C(=C\c3cccn3-c3cccc(Cl)c3)C(=N)N21 | 32.1 µM |
| CCOC(=O)C1=C(C)N=c2sc(=Cc3ccc(OCC(=O)O)cc3)c(=O)n2C1c1cc(OC)c(OC)c(OC)c1 (stereo not drawn) | > 100 µM (inactive) |
| CCOC(=O)C1=C(C)N=c2s/c(=C\c3ccc(OCC(=O)O)cc3)c(=O)n2C1c1ccc(OC)c(OCC)c1 (stereo not drawn) | 27.7 µM |
| CS(=O)(=O)C1=NSC2=NC(=O)/C(=C\c3cccn3-c3ccc(Cl)c(Cl)c3)C(=N)N21 | 44.5 µM |
| CCOC(=O)C1=C(C)N=c2sc(=Cc3ccc(OCC(=O)O)cc3)c(=O)n2C1c1ccccc1OC (stereo not drawn) | > 100 µM (inactive) |
| COc1cccc(C2C(C(=O)Nc3ccccc3)=C(C)N=c3sc(=Cc4ccc(OCC(=O)O)cc4)c(=O)n32)c1 (stereo not drawn) | > 100 µM (inactive) |
| COc1ccc(CCn2c(O)cc3nn(-c4nc5ccccc5s4)c(=O)c-3c2C)cc1 | 35.9 µM |
| Cc1c2c(=O)n(-c3nc4ccccc4s3)nc-2cc(O)n1Cc1ccccc1Cl | 29.5 µM |
| CCOc1ccc(-n2cccc2/C=C2/C(=N)N3C(=NC2=O)SN=C3S(C)(=O)=O)cc1 | 99.9 µM |
| CS(=O)(=O)C1=NSC2=NC(=O)/C(=C\c3cccn3-c3cc(Cl)cc(Cl)c3)C(=N)N21 | > 100 µM (inactive) |
| O=C(O)CCCN1C(=O)/C(=C\c2ccc(-c3ccc(F)cc3)o2)SC1=S | 3.86 µM |
| O=C(O)CCCN1C(=O)/C(=C/c2ccc(-c3ccc(Cl)c(Cl)c3)o2)SC1=S | 2.1 µM |
| Cc1c2c(=O)n(-c3nc4ccccc4s3)nc-2cc(O)n1Cc1cccs1 | 50.1 µM |
| CCOC(=O)C1=C(C)N=c2s/c(=C\c3ccc(OCC(=O)O)cc3)c(=O)n2C1c1ccc(Cl)cc1 (stereo not drawn) | 50 µM |
| O=C(O)CCCN1C(=O)/C(=C\c2ccc(-c3ccc(Cl)cc3)o2)SC1=S | 25.2 µM |
| Cc1c2c(=O)n(-c3nc4ccccc4s3)nc-2cc(O)n1Cc1cccnc1 | > 100 µM (inactive) |
| O=C(O)c1ccc(C[n+]2c(-c3ccccc3)csc2Nc2ccccc2)cc1 | > 100 µM (inactive) |
| O=C(O)c1ccc([C@@H]2Nc3ccc(S(=O)(=O)Nc4cccc5ccccc45)cc3[C@@H]3C=CC[C@@H]32)cc1 | 39.4 µM |
| CC1=C(C(=O)OC(C)C)C(c2ccc(Cl)cc2)n2c(s/c(=C\c3ccc(OCC(=O)O)cc3)c2=O)=N1 (stereo not drawn) | 48.4 µM |
| CCOC(=O)C1=C(C)N=c2sc(=Cc3ccc(OCC(=O)O)cc3)c(=O)n2C1c1ccc(F)cc1 (stereo not drawn) | 77.1 µM |
| O=C(O)CCCN1C(=O)/C(=C/c2ccc(-c3cccc(C(F)(F)F)c3)o2)SC1=S | > 100 µM (inactive) |
| COc1ccc(-n2cccc2/C=C2/C(=N)N3C(=NC2=O)SN=C3S(C)(=O)=O)cc1Cl | > 100 µM (inactive) |
